Experimental data: patent US9271978B2 (Zenith Epigenetics Corp., priority 2012, dated 2016)

Assays:
Set-up in all cases: key: Active: Compounds with an IC50 value less than 30 μM were deemed to be active.; Not Active: Compounds with an IC50 value less than 30 μM were deemed to be active
hIL-6 mRNA = test: Inhibition of hIL-6 mRNA transcription in U937 cells; type: cell-based, human; conditions: LPS stimulation, active = IC50 <30 μM
Summary of the method: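 Readout is one-step real-time PCR of hIL-6 mRNA, normalized to an internal control and given as fold induction versus control. Cells: PMA (60 ng/mL, 3 days)-differentiated U937 macrophages, compound added 1 h before 1 ug/mL LPS, harvested after 3 h at 37° C.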

hMCP-1 mRNA = test: Inhibition of hMCP-1 mRNA transcription in human peripheral blood mononuclear cells; type: cell-based; conditions: 3 h
Method: In this example, hMCP-1 mRNA in human peripheral blood mononuclear cells was quantitated to measure the transcriptional inhibition of hMCP-1 when treated with a compound of the present disclosure.
Human Peripheral Blood Mononuclear Cells were plated (1.0×10^5 cells per well) in a 96-well plate in 45 μL RPMI-1640 containing 10% FBS and penicillin/streptomycin. The cells were treated with the test compound (45 μL at 2× concentration), and then the cells were incubated at 37° C. for 3 h before the cells were harvested. At time of harvest, cells were transferred to V-bottom plates and centrifuged (800 rpm, 5 min). Spent media was removed and cell lysis solution (70 μL) was added the cells in each well and incubated for 5-10 min at room temperature, to allow for complete cell lysis and detachment. mRNA was then prepared using the “mRNA Catcher PLUS plate” (Invitrogen), according to the protocol supplied. After the last wash, as much wash buffer as possible was aspirated without allowing the wells to dry. Elution buffer (E3, 70 μL) was then added to each well. mRNA was then eluted by incubating the mRNA Catcher PLUS plate with Elution Buffer for 5 min at 68° C. and then immediately placing the plate on ice.
The eluted mRNA isolated was then used in a one-step quantitative real-time PCR reaction, using components of the Ultra Sense Kit together with Applied Biosystems primer-probe mixes. Real-time PCR data was analyzed, normalizing the Ct values for hMCP-1 to an internal control, prior to determining the fold induction of each unknown sample, relative to the control.

[1] = target: T1, second bromodomain of Brd2 (BRD2(2)) (Homo sapiens, UniProt P25440); test: Inhibition of tetra-acetylated histone H4 binding to Brd2 bromodomain 2 (TR-FRET); conditions: tetra-acetylated histone H4 peptide, active = IC50 <30 μM
T1 construct: made in house; host or cells: E. coli BL21 (DE3)
T1 sequence (P25440 344-453 limits assumed): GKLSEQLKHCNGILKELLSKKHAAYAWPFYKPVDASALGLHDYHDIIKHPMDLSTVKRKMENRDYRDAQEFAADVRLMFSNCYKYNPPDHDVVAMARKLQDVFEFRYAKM
Summary of the method: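 IC50 values come from dose-response curves of the 665 nm to 620 nm TR-FRET signal decrease, measured after 2 h at room temperature. Reactions contained 200 nM E. coli-expressed His-tagged bromodomain, 25-50 nM biotinylated tetra-acetylated H4 peptide, Eu-streptavidin plus XL665 anti-His antibody, with 30 mM HEPES pH 7.4, 320 mM KF and 0.2% DMSO.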

| IL-6 activity (IC50 <30 μM) (hIL-6 mRNA) | MCP-1 activity (IC50 < 30 μM) (hMCP-1 mRNA) | FRET activity (IC50 <30 μM) BRD2(2) [1] | SMILES |
| --- | --- | --- | --- |
| Active | Active | Active | Cc1noc(C)c1-c1ccc(=O)n(Cc2ccccc2)c1 [Example 56, 1-Benzyl-5-(3,5-dimethylisoxazol-4-yl)pyridin-2(1H)-one] |
| Active | Active | Active | Cc1noc(C)c1-c1cc(N)c(=O)n(Cc2ccccc2)c1 [Example 73, 3-Amino-1-benzyl-5-(3,5-dimethylisoxazol-4-yl)pyridin-2(1H)-one] |
| Active | Active | Active | Cc1noc(C)c1-c1ccc(=O)n(Cc2ccc(Cl)cc2)c1 [Example 128, 1-(4-Chlorobenzyl)-5-(3,5-dimethylisoxazol-4-yl)pyridin-2(1H)-one] |
| Active | Active | Active | Cc1noc(C)c1-c1ccc(=O)n([C@H](C)c2ccccc2)c1 [Example 134, (R)-5-(3,5-Dimethylisoxazol-4-yl)-1-(1-phenylethyl)pyridin-2(1H)-one] |
| Active |  |  | Cc1noc(C)c1-c1cc(N)c(=O)n(Cc2ccc(F)cc2)c1 [Example 180, 3-amino-5-(3,5-dimethylisoxazol-4-yl)-1-(4-fluorobenzyl)pyridin-2(1H)-one] |
| Active |  |  | Cc1noc(C)c1-c1cc(N)c(=O)n(Cc2ccsc2)c1 [Example 219, 3-amino-5-(3,5-dimethylisoxazol-4-yl)-1-(thiophen-3-ylmethyl)pyridin-2(1H)-one] |
| Active |  |  | Cc1noc(C)c1-c1cc(N)c(=O)n(Cc2ccc(Br)cc2)c1 [Example 241, 3-Amino-1-(4-bromobenzyl)-5-(3,5-dimethylisoxazol-4-yl)pyridin-2(1H)-one] |
